In US12365674B2, “Inhibitors of histone deacetylase useful for the treatment or prevention of HIV infection” (Merck Sharp & Dohme LLC, priority 2019, dated 2025):

These molecules were tested against T1, human HDAC2 (Homo sapiens, UniProt Q92769) (assay: Human HDAC enzyme inhibitor Fluor-de-Lys assay, HDAC2). Conditions: 1.5 nM enzyme, 40 μM substrate BML-KI104, 3 h pre-incubation, 60 min reaction; read-out: HDAC2_IC50.
T1 construct: Full length human HDAC2-FLAG was expressed in baculovirus infected Sf9 cells; host or cells: baculovirus infected Sf9 cells
T1 sequence (Q92769 whole entry): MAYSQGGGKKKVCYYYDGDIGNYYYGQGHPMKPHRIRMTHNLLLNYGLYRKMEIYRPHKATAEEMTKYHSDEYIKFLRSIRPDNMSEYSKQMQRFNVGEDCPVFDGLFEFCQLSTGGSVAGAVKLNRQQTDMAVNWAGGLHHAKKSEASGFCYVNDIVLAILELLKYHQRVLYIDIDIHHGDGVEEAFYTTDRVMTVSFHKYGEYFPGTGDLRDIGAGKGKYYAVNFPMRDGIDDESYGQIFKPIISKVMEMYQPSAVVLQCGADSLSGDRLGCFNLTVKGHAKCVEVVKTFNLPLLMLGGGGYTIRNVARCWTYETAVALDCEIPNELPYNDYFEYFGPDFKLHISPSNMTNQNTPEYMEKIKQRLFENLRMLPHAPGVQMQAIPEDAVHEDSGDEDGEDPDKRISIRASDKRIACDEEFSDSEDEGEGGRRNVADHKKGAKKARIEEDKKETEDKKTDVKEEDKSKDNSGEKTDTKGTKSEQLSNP
Format: biochemical
Description: Recombinant human HDAC8 (catalog number BML-SE145-0100) and HDAC10 (catalog number BML-SE559-0050) enzymes, HDAC substrates BML-KI104 and BML-KI178, and HDAC developer solutions BML-KI105 and BML-KI176 were purchased from Enzo Life Sciences (Farmingdale, NY). Recombinant human HDAC5 and HDAC11 were purchased from BPS Bioscience (San Diego, CA)(catalog numbers 50045 and 50021). Substrate Boc-Lys(TFA)-AMC was obtained from Bachem (Bupendorf, Switzerland) (catalog number 1-1985). HDAC inhibitor suberoylanilide hydroxamic acid (SAHA) was obtained from Indofine (Hillsborough Township, NJ) and trichostatin A (TSA) was obtained from Sigma-Aldrich (St. Louis, MO). […] HEPES pH 8.0 was obtained from Boston BioProducts (Ashland, MA), Tween-20 from Fisher Scientific (Hampton, NH)(catalog number BP337), TCEP from Calbiochem and 7.5% bovine serum albumin (BSA) from Life Technologies (Carlsbad, CA) (catalog number 15260037). 384-well, black assay plates were obtained from Corning (Corning, NY) (catalog number 3575).
Recombinant human HDAC1, HDAC2, and HDAC3/SMRT heterodimer were prepared by Merck Research Laboratories. […] The eluted protein was then passed over an anti-HDAC1 immunoaffinity column to remove any complexes containing HDAC1. […]
The histone deacetylase activities of HDAC1, HDAC2, HDAC3, HDAC6, and HDAC8 were measured in modified Fluor-de-Lys assays in 384-well format. In this assay, HDAC enzymes are initially incubated with an ε-acetyl (or -trifluoroacetyl)-L-lysine-containing substrate with a C-terminal amide having aminomethylcoumarin as the amine component. HDACs cleave the ε-acetyl group, rendering the resulting product susceptible to AMC cleavage by trypsin. The released AMC is then detected by its fluorescence.
The HDAC 1, 2 assays employed buffer A, which contained 20 mM HEPES, pH 8.0, 1 mM MgCl2, 137 mM NaCl, 2.7 mM KCl, 0.05% BSA. The HDAC3/SMRT assay employed buffer B, consisting of 20 mM HEPES, pH 8.0, 1 mM MgCl2, 50 mM NaCl, 2.7 mM KCl, 0.05% BSA, 0.005% Tween 20, and 10 μM IP4. The HDAC6 assay employed buffer C, consisting of 20 mM HEPES, pH 8.0, 1 mM MgCl2, 137 mM NaCl, 2.7 mM KCl, 0.5 mM TCEP (Calbiochem) and 0.05% BSA. The HDAC8 assay employed buffer D, consisting of 20 mM HEPES, pH 8.0, 1 mM MgCl2, 100 mM NaCl, 20 mM KCl, 0.1% n-octyl-β-D-glucoside (Anatrace, Maumee, OH) and 0.05% BSA. All steps were performed at room temperature (23° C.). The assay was performed by pre-incubating serial dilutions of test compounds with the target HDAC prior to initiation with substrate. Each compound was titrated in a 10-point dose response, using a 1:3 fold dilution scheme, with 0.15 ul of solution added by ECHO555 to the plate, followed by the addition of 20 μl of the appropriate HDAC isoform diluted in appropriate assay buffer. […] Final conditions used for each assay were: 1. HDAC 1, 0.3 nM total enzyme, 20 μM substrate BML-K1104; 2. HDAC 2, 1.5 nM total enzyme, 40 μM substrate BML-K1104; 3. HDAC 3/SMRT, 0.3 nM total enzyme, 20 μM substrate BML-K1104; 4. HDAC 6, 1.3 nM total enzyme, 2.5 μM substrate BML-K1104; 5. HDAC 8, 1.3 nM total enzyme, 200 μM substrate BML-K1178; the final high dose of test compound was 30 μM. […] The reactions were stopped and developed by addition of 30 ul of HDAC developer solution containing a saturating level of HDAC inhibitor as follows: 1.
With `CN1CC(C(=O)N[C@@H](COCCCC(=O)c2ccon2)c2[nH]c(-c3ccc(F)cc3)nc2Cl)C1` [Compound 16, N-[(1R)-1-[4-chloro-2-(4-fluorophenyl)-1H-imidazol-5-yl]-2-(4-isoxazol-3-yl-4-oxobutoxy)ethyl]-1-methylazetidine-3-carboxamide] the IC50 was 56.7 nM. For `CNC(=O)C(=O)CCCOC[C@H](NC(=O)C12CCN(CC1)CC2)c1ncc(-c2cc3ccccc3nc2OC)[nH]1` [Compound 9, N-[(1R)-1-[5-(2-methoxyquinolin-3-yl)-1H-imidazol-2-yl]-2-{[5-(methylamino)-4,5-dioxopentyl]oxy}ethyl]-1-azabicyclo[2.2.2]octane-4-carboxamide], the IC50 was 1.5 nM. For `CN1CCC2(CC1)C[C@@H]2C(=O)N[C@@H](COCCCC(=O)c1ccon1)c1[nH]c(-c2ccc(F)cc2)nc1Cl` [Compound 18, (1S)-N-[(1R)-1-[4-chloro-2-(4-fluorophenyl)-1H-imidazol-5-yl]-2-(4-isoxazol-3-yl-4-oxobutoxy)ethyl]-6-methyl-6-azaspiro[2.5]octane-1-carboxamide], the IC50 was 8.1 nM. For `CCC(=O)CCCOC[C@H](NC(=O)c1cncs1)c1ncc(-c2cc3ccccc3nc2OC)[nH]1` [Compound 5, N-{(1R)-1-[5-(2-methoxyquinolin-3-yl)-1H-imidazol-2-yl]-2-[(4-oxohexyl)oxy]ethyl}-1,3-thiazole-5-carboxamide], the IC50 was 1160 nM. `Cc1ccc2cc(-c3cnc([C@H](CSCCCC(=O)c4ncco4)NC(=O)[C@H]4CC45CCN(C)CC5)[nH]3)ccc2n1` [Compound 21, (1S)-6-methyl-N-[(1R)-1-[5-(2-methylquinolin-6-yl)-1H-imidazol-2-yl]-2-{[4-(1,3-oxazol-2-yl)-4-oxobutyl]sulfanyl}ethyl]-6-azaspiro[2.5]octane-1-carboxamide] was tested, and the IC50 was 2.9 nM. `CCC(=O)CCCOC[C@H](NC(=O)C12CCN(CC1)CC2)c1ncc(-c2cc3ccccc3nc2OC)[nH]1` [Compound 6, N-{(1R)-1-[5-(2-methoxyquinolin-3-yl)-1H-imidazol-2-yl]-2-[(4-oxohexyl)oxy]ethyl}-1-azabicyclo[2.2.2]octane-4-carboxamide] showed an IC50 of 925 nM. Molecule `CN(C)CC(=O)N[C@@H](COCCCC(=O)c1ccon1)c1[nH]c(-c2ccc(F)cc2)nc1Cl` [Compound 17, N-[(1R)-1-[4-chloro-2-(4-fluorophenyl)-1H-imidazol-5-yl]-2-(4-isoxazol-3-yl-4-oxobutoxy)ethyl]-N~2~,N~2~- dimethylglycinamide] has an IC50 of 106 nM. Work on `CNC(=O)C(=O)CCCOC[C@H](NC(=O)c1cncs1)c1ncc(-c2cc3ccccc3nc2OC)[nH]1` [Compound 8, N-[(1R)-1-[5-(2-methoxyquinolin-3-yl)-1H-imidazol-2-yl]-2-{[5-(methylamino)-4,5-dioxopentyl]oxy}ethyl]-1,3-thiazole-5-carboxamide] yielded an IC50 of 2.5 nM. `COc1nc2ccccc2cc1-c1cnc([C@H](COCCCC(=O)c2ncco2)NC(=O)CN(C)C)[nH]1` [Compound 13, N-{(1R)-1-[5-(2-methoxyquinolin-3-yl)-1H-imidazol-2-yl]-2-[4-(1,3-oxazol-2-yl)-4-oxobutoxy]ethyl}-N~2~,N~2~- dimethylglycinamide] showed an IC50 of 14.4 nM. In the case of `COc1nc2ccccc2cc1-c1cnc([C@H](COCCCC(=O)c2ncco2)NC(=O)c2cncs2)[nH]1` [Compound 10, N-{(1R)-1-[5-(2-methoxyquinolin-3-yl)-1H-imidazol-2-yl]-2-[4-(1,3-oxazol-2-yl)-4-oxobutoxy]ethyl}-1,3-thiazole-5-carboxamide], the IC50 is reported as 25.9 nM. `COc1nc2ccccc2cc1-c1cnc([C@H](COCCCC(=O)c2ncco2)NC(=O)[C@H]2CC23CCN(C)CC3)[nH]1` [Compound 11, (1S)-N-{(1R)-1-[5-(2-methoxyquinolin-3-yl)-1H-imidazol-2-yl]-2-[4-(1,3-oxazol-2-yl)-4-oxobutoxy]ethyl}-6-methyl-6-azaspiro[2.5]octane-1-carboxamide] gave an IC50 of 9.7 nM. `COc1cc2nc(C)ccc2cc1-c1cnc([C@H](COCCCC(=O)c2cc(C)on2)NC(=O)C2CN(C)C2)[nH]1` [Compound 19, N-{(1R)-1-[5-(7-methoxy-2-methylquinolin-6-yl)-1H-imidazol-2-yl]-2-[4-(5-methylisoxazol-3-yl)-4-oxobutoxy]ethyl}-1-methylazetidine-3-carboxamide] showed an IC50 of 8 nM. `N[C@@H](COCCCC(=O)c1ccon1)c1ncc(-c2ccccc2F)[nH]1` [Compound 2, (R)-4-(2-amino-2-(5-(2-fluorophenyl)-1H-imidazol-2-yl)ethoxy)-1-(isoxazol-3-yl)butan-1-one] was tested, and the IC50 was ≥ 900 nM. For `COc1nc2ccccc2cc1-c1cnc([C@@H](N)COCCCC(=O)c2ncco2)[nH]1` [Compound 1, (R)-4-(2-amino-2-(5-(2-methoxyquinolin-3-yl)-1H-imidazol-2-yl)ethoxy)-1-(oxazol-2-yl)butan-1-one], the IC50 was 1000 nM. In the case of `COc1nc2ccccc2cc1-c1cnc([C@H](COCCCC(=O)c2ccon2)NC(=O)CN(C)C)[nH]1` [Compound 14, N-{(1R)-2-(4-isoxazol-3-yl-4-oxobutoxy)-1-[5-(2-methoxyquinolin-3-yl)-1H-imidazol-2-yl]ethyl}-N~2~,N~2~- dimethylglycinamide], the IC50 is reported as 3.2 nM. For `CN1CC(C(=O)N[C@@H](COCCCC(=O)c2ccon2)c2ncc(-c3ccccc3F)[nH]2)C1` [Compound 15, N-[(1R)-1-[5-(2-fluorophenyl)-1H-imidazol-2-yl]-2-(4-isoxazol-3-yl-4-oxobutoxy)ethyl]-1-methylazetidine-3-carboxamide], the IC50 was 31.3 nM. Work on `COc1nc2ccccc2cc1-c1cnc([C@H](COCCCC(=O)c2ncco2)NC(=O)C23CCN(CC2)CC3)[nH]1` [Compound 12, N-{(1R)-1-[5-(2-methoxyquinolin-3-yl)-1H-imidazol-2-yl]-2-[4-(1,3-oxazol-2-yl)-4-oxobutoxy]ethyl}-1-azabicyclo[2.2.2]octane-4-carboxamide] yielded an IC50 of 29.7 nM. Molecule `COc1cc2nc(C)ccc2cc1-c1cnc([C@H](COCCCC(=O)c2cc(C)on2)NC(=O)[C@H]2CC23CCN(C)CC3)[nH]1` [Compound 20, (1S)-N-{(1R)-1-[5-(7-methoxy-2-methylquinolin-6-yl)-1H-imidazol-2-yl]-2-[4-(5-methylisoxazol-3-yl)-4-oxobutoxy]ethyl}-6-methyl-6-azaspiro[2.5]octane-1-carboxamide] has an IC50 of 3.8 nM.
